Assays:
neural tube defects = details: cited from earlier work
ct/ct embryos = details: supplementation; cited from earlier work
genomic DNA = experiment: Incorporation of tritiated nucleotide precursors into genomic DNA in embryo culture; parameters: species or system mouse; details: embryos cultured E9.5-10.5, mean ± SEM, n = 3
Procedure: Embryos were explanted at E9.5 and cultured for 24 hours in rat serum as described previously (Cockroft, In: Copp […], editors. Postimplantation Mammalian Embryos: A Practical Approach. Oxford: […] DNA concentration was determined by NanoDrop.

[1] = test system: curly tail (ct/ct) embryos; experiment: Frequency of spina bifida, tail flexion defects and straight tails in curly tail embryos after maternal supplementation; assay type: in vivo, mouse; details: for frequency of straight-tailed (unaffected) embryos compared with controls: all embryos; for frequency of straight-tailed (unaffected) embryos compared with controls / frequency of spina bifida compared with controls: z-test; for frequency of spina bifida compared with controls: maternal i.p. 20 mg/kg each reagent daily E7.5-10.5, embryos scored E11.5-13.5
Source text: The curly tail (ct) mouse is considered a useful model for NTDs owing to a number of characteristics that resemble the corresponding defects in humans. These include a multifactorial etiology (with effects of both genetic and environmental factors), location of spina bifida lesions at the lumbosacral level, the presence of elevated alpha-fetoprotein in the amniotic fluid and a female excess among exencephalic embryos. […] The closure defects in ct/ct embryos are a mechanical consequence of excessive ventral curvature of the caudal region of the embryo. This, in turn, results from a dorso-ventral growth imbalance caused by a diminished cellular proliferation rate in the hindgut endoderm. In addition to spina bifida, cranial NTDs (exencephaly) also occur at low frequency among curly tail embryos (approximately 5%), but the cellular basis for these defects is not known. Curly tail mice were maintained as a closed random-bred colony as described in Van […] et al (Anat Embryol 2001 203: 225-237). […] Any resorptions were recorded. Crown-rump length was measured using an eyepiece graticule. Statistical analysis was carried out using SigmaStat (version 3.5; Systat Software Inc). Proportions were compared by z-test. Comparisons of mean values were made by […] or by One Way ANOVA with pairwise analysis by Holm-Sidak test. Embryos removed from pregnant females at E11.5-13.5 were scored for the outcome of low spinal neurulation as: normal (ST, straight tail), tail flexion defect (CT, curled tail), or open spina bifida which was always associated with a tail flexion defect (SB plus CT). Tail flexion defects arise when closure of the neural tube is delayed but does ultimately occur.

curly tail embryos = experiment: Frequency of exencephaly (cranial NTDs) among curly tail embryos after maternal supplementation; assay type: in vivo, mouse; details: maternal i.p. 20 mg/kg each reagent daily E7.5-10.5; controls 6.8%
Procedure: The closure defects in ct/ct embryos are a mechanical consequence of excessive ventral curvature of the caudal region of the embryo. This, in turn, results from a dorso-ventral growth imbalance caused by a diminished cellular proliferation rate in the hindgut endoderm. In addition to spina bifida, cranial NTDs (exencephaly) also occur at low frequency among curly tail embryos (approximately 5%), but the cellular basis for these defects is not known. […] Any resorptions were recorded. Crown-rump length was measured using an eyepiece graticule. The frequency of exencephaly (cranial NTDs) among genetically predisposed curly tail embryos was also assessed. The frequency of exencephaly was 6.8% among embryos from control litters. There was a trend towards diminished frequency of exencephaly among embryos treated with thymidine and adenine, thymidine and GMP, or thymidine only, compared with controls (3.0%, 2.5% and 2.7% respectively, see FIG. 4).

curly tail mice = details: female, mouse, in vivo
Procedure: Experimental litters were generated by overnight mating with the day of finding a copulation plug designated embryonic day (E) 0.5. Maternal supplementation was performed daily from E7.5-10.5.
Treatments were: control (water only), thymidine+adenine, thymidine+hypoxanthine, thymidine+GMP, thymidine only, adenine only (all reagents from Sigma). GMP was used instead of guanine owing to solubility considerations in preparing solutions for injection. Animal studies were carried out under regulations of the Animals (Scientific Procedures) Act 1986 of the UK Government, and in according with guidance issued by the Medical Research Council, UK in Responsibility in the Use of Animals for Medical Research (July 1993).
Collection of Embryos Litters were dissected from the uterus, at E11.5-13.5, in Dulbecco's Modified Eagle's Medium containing 10% fetal calf serum and assessed for presence of neural tube defects (NTDs) under a light microscope. Any resorptions were recorded. Crown-rump length was measured using an eyepiece graticule.
In order to evaluate potential effects of treatment on litter size or embryonic viability, the number of embryos in each litter was recorded together with the presence of dead or resorbed embryos.

SMILES: Nc1nc2ncc(CNc3ccc(C(=O)N[C@@H](CCC(=O)O)C(=O)O)cc3)nc2c(=O)[nH]1 [folic acid]
- reduction of NTD recurrence risk (neural tube defects; 5 mg/day, women with a previous affected pregnancy): ~70%
- reduction in the prevalence of NTDs (neural tube defects; USA, fortification of bread flour): 26%
- NTDs not preventable by maternal treatment (neural tube defects; human, in vivo): 30-50%
- NTD recurrences prevented (neural tube defects; randomised clinical trials, administered early in pregnancy): up to 70%
- prevention of NTDs in ct/ct embryos (ct/ct embryos): not preventable

SMILES: Cc1cn([C@H]2C[C@H](O)[C@@H](CO)O2)c(=O)[nH]c1=O [[^3H]-thymidine]
- [^3H] incorporation into genomic DNA (genomic DNA; 37,000 Bq/ml, 0.07 nmol/ml): 898.4 ± 98.0 cpm/μg

SMILES: Cc1cn([C@H]2C[C@H](O)[C@@H](CO)O2)c(=O)[nH]c1=O [Thy only, thymidine]
- frequency of straight-tailed (unaffected) embryos compared with controls ([1]; listed as Thy): significantly higher
- frequency of straight-tailed (unaffected) embryos compared with controls ([1]; listed as thymidine only): higher frequency
- proportion of unaffected, straight tail embryos within litter compared with controls ([1]; litter-by-litter analysis, One Way ANOVA): not statistically significant
- frequency of spina bifida compared with controls ([1]; 20 mg/kg): trend towards reduced spina bifida frequency
- frequency of spina bifida compared with controls ([1]; listed as thymidine alone, 20 mg/kg): trend towards reduced frequency
- frequency of exencephaly (curly tail embryos): 2.7%
- Mean litter size (curly tail mice): 7.4 ± 0.8
- Resorption per litter (curly tail mice): 0.9 ± 0.4

SMILES: Nc1ncnc2nc[nH]c12 [[^3H]-adenine]
- [^3H] incorporation into genomic DNA (genomic DNA; 37,000 Bq/ml, 0.036 nmol/ml): 40.0 ± 6.6 cpm/μg
- [^3H] incorporation into genomic DNA (genomic DNA; 74,000 Bq/ml, 0.07 nmol/ml): 82.8 ± 6.7 cpm/μg

SMILES: Nc1ncnc2nc[nH]c12 [Ade only, adenine]
- frequency of spina bifida compared with controls [1]: no effect
- Mean litter size (curly tail mice): 7.5 ± 0.7
- Resorption per litter (curly tail mice): 0.8 ± 0.3

From patent publication US20150352137A1, “THYMIDINE FOR PREVENTING NEURAL TUBE DEFECTS” (priority 2012, published 2015)
